# Data: patent publication US20260285876A1, “MACROCYCLIC COMPOUNDS AS USP1 INHIBITORS” (GUANGDONG NEWOPP BIOPHARMACEUTICALS CO., LTD., priority 2023, published 2026)
# Biological target: T1, USP1/UAF1 (Homo sapiens, UniProt O94782)
# T1 construct: purchased R&D Systems
# Test: Deubiquitination assay for USP1/UAF1 (ubiquitin-rhodamine 110 substrate)
# Type: biochemical
# Conditions: 0.5 nM USP1/UAF1, 150 nM ubiquitin-rhodamine, 50% inhibition compared to DMSO control
# Method: Deubiquitination assay for USP1/UAF1: compounds described here were tested for their ability to inhibit USP1 deubiquitinase activity in this assay using ubiquitin-rhodamine 110 as the substrate. The assay was conducted in the assay buffer (50 mM Tris-HCl, pH 7.8, 0.5 mM EDTA, 0.1 mg/ml Bovine Serum Albumin, 1 mM DTT, 0.01% Tween-20) in 384 well plates. 0.5 nM USP1/UAF1 (R&D Systems) was incubated with compounds in dose response format for 10 minutes at room temperature. Then the reaction was initiated by addition of 150 nM ubiquitin-rhodamine (R&D Systems). The fluorescence intensity was read after 45 minutes at Ex488/Em535 by CLARIOstar (BMG Labtech). IC50 response curves were plotted.
# T1 sequence (O94782 whole entry): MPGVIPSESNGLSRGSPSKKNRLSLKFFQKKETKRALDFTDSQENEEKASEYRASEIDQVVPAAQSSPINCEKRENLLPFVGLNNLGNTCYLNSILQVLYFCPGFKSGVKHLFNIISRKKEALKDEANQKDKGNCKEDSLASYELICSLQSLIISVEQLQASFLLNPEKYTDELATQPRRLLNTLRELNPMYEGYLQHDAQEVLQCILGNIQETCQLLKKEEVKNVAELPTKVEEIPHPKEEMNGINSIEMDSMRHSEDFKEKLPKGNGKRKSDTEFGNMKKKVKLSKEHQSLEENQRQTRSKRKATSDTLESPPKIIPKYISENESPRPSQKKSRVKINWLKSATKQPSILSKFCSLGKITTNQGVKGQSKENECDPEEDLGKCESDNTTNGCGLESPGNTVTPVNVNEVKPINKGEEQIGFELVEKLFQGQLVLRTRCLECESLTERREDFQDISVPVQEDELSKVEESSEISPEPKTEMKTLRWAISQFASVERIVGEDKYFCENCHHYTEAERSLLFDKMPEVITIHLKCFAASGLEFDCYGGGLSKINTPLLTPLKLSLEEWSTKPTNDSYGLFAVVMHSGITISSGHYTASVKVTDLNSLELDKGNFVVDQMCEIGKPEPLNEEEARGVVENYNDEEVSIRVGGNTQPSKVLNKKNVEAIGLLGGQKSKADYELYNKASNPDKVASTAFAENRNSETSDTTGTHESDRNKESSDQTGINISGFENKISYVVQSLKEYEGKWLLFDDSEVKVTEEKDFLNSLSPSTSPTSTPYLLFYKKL
# T1 sequence (Q8TAF3 whole entry partner): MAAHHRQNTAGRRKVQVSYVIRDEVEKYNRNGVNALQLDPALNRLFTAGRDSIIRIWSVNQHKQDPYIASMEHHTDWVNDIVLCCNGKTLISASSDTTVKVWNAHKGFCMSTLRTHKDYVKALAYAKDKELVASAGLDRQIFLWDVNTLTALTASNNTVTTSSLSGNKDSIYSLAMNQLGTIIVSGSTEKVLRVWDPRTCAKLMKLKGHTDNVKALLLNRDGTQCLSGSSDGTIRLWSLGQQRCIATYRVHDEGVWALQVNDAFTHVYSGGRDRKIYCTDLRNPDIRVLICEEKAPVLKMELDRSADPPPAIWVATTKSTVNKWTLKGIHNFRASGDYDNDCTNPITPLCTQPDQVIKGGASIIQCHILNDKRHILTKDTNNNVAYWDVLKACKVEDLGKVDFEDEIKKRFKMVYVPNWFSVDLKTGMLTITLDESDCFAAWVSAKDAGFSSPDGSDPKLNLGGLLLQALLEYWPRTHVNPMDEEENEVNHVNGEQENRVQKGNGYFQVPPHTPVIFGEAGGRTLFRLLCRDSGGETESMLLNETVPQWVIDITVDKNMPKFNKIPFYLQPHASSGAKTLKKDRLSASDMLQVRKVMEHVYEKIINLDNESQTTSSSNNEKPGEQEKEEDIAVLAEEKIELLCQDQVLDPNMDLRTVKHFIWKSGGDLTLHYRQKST
row,IC50 [nM],Compound
1,≤ 100,"CC(C)n1cc(C(F)(F)F)nc1-c1ccc2c(c1)NCCCOc1ncnc(C3CC3)c1-c1ncc3ccc(=O)n(c3n1)C2 [Example 20, 1^6-cyclopropyl-4^4-(1-isopropyl-4-(trifluoromethyl)-1H-imidazol-2-yl)-2^7,2^8-dihydro-9-oxa-5-aza-2(2,8)-pyrido[2,3-d]pyrimidina-1(5,4)-pyrimidina-4(1,2)-benzenacyclononaphan-2^7-one]"
2,≤ 100,"FC(F)(F)c1cn(C2CC2)c(-c2ccc3c(c2)OCCOc2ncnc(C4CC4)c2-c2ncc4ccc(n4n2)C3)n1 [Example 21, (Z)-1^6-cyclopropyl-4^4-(1-cyclopropyl-4-(trifluoromethyl)-1H-imidazol-2-yl)-5,8-dioxa-2(2,7)-pyrrolo[2,1-f][1,2,4]triazina-1(5,4)-pyrimidina-4(1,2)-benzenacyclooctaphane]"
3,100 to 1000,CC(C)n1cc(C(F)(F)F)nc1-c1ccc2cc1C#CCCOc1ncnc(C3CC3)c1-c1ncc3cnn(c3n1)C2 [Example 43]
4,≥ 1000,"CC(C)n1cc(C(F)(F)F)nc1-c1ccc2c(c1)N(C)CCCOc1ncnc(C3CC3)c1-c1ncc3cnn(c3n1)C2 [Example 23, 1^6-cyclopropyl-4^4-(1-isopropyl-4-(trifluoromethyl)-1H-imidazol-2-yl)-5-methyl-2^1H-9-oxa-5-aza-2(6,1)-pyrazolo[3,4-d]pyrimidina-1(5,4)-pyrimidina-4(1,2)-benzenacyclononaphane]"
5,≤ 100,"CC(C)n1cc(C(F)(F)F)nc1-c1ccc2c(c1)COCCOc1ncnc(C3CC3)c1-c1ncc3cnn(c3n1)C2 [Example 28, 1^6cyclopropyl-4^4-(1-isopropyl-4-(trifluoromethyl)-1H-imidazol-2-yl)-2^1H-6,9-dioxa-2(6,1)-pyrazolo[3,4-d]pyrimidina-1(5,4)-pyrimidina-4(1,2)-benzenacyclononaphane]"
6,≤ 100,"1^6-cyclopropyl-4^4-(1-isopropyl-4-(trifluoromethyl)-1H-imidazol-2-yl)-2^1H-9-oxa-5-aza-2(6,1)-pyrazolo[3,4-d]pyrimidina-1(5,4)-pyrimidina-4(1,3)-benzenacyclonona-phane [Example 50]"
7,≤ 100,"1^6-cyclopropyl-4^4-(1-isopropyl-4-(trifluoromethyl)-1H-imidazol-2-yl)-2^1-methyl-2^1H-5,8-dioxa-2(5,3)-pyrazolo[4,3-d]pyrimidina-1(5,4)-pyrimidina-4(1,2)-benzenacyclooctaphane [Example 22]"
8,≤ 100,"CC(C)n1cc(C(F)(F)F)nc1-c1ccc2c(c1)NCCOc1ncnc(C3CC3)c1-c1ncc3ccc(=O)n(c3n1)C2 [Example 24, 1^6-cyclopropyl-4^4-(1-isopropyl-4-(trifluoromethyl)-1H-imidazol-2-yl)-2^7,2^8-dihydro-8-oxa-5-aza-2(2,8)-pyrido[2,3-d]pyrimidina-1(5,4)-pyrimidina-4(1,2)-benzenacyclooctaphan-2^7-one]"
9,≥ 1000,"O=c1ccc2cnc3nc2n1Cc1ccc(-c2nc(C(F)(F)F)cn2C2CC2)cc1CCOc1c-3ncnc1C1CC1 [Example 18, 1^6-cyclopropyl-4^4-(1-cyclopropyl-4-(trifluoromethyl)-1H-imidazol-2-yl)-2^7,2^8-dihydro-7-oxa-2(2,8)-pyrido[2,3-d]pyrimidina-1(5,4)-pyrimidina-4(1,2)-benzenacycloheptaphan-2^7-one]"
10,≤ 100,"CC(C)n1cc(C(F)(F)F)nc1-c1ccc2c(c1)NCCOc1ncnc(C3CC3)c1-c1ncc3cnn(c3n1)C2 [Example 14, 1^6-cyclopropyl-4^4-(1-isopropyl-4-(trifluoromethyl)-1H-imidazol-2-yl)-2^1H-8-oxa-5-aza-2(6,1)-pyrazolo[3,4-d]pyrimidina-1(5,4)-pyrimidina-4(1,2)-benzenacyclooctaphane]"
11,100 to 1000,"CC(C)n1cc(C(F)(F)F)nc1-c1ccc2c(c1)OCC1(CC1)COc1ncnc(C3CC3)c1-c1ncc3cnn(c3n1)C2 [Example 12, 6′-cyclopropyl-4′-(1-isopropyl-4-(trifluoromethyl)-1H-imidazol-2-yl)spiro[cyclopropane-1,7′-5,9-dioxa-2(6,1)-pyrazolo[3,4-d]pyrimidina-1(5,4)-pyrimidina-4(1,2)-benzenacyclononaphane]]"
12,≤ 100,"CC(C)n1cc(C(F)(F)F)nc1-c1ccc2c(c1)/C=C/CCOc1ncnc(C3CC3)c1-c1ncc3cnn(c3n1)C2 [Example 55, (E)-16-cyclopropyl-44-(1-isopropyl-4-(trifluoromethyl)-1H-imidazol-2-yl)-21H-9-oxa-2(6,1)-pyrazolo[3,4-d]pyrimidina-1(5,4)-pyrimidina-4(1,2)-benzenacyclononaphan-5-ene4(1,2)-benzenacyclononaphane]"
13,≤ 100,"FC(F)(F)c1cc(C2CC2)n(-c2ccc3c(c2)NCCCOc2c(ncnc2C2CC2)-c2ncc4cnn(c4n2)C3)n1 [Example 36, 1-cyclopropyl-4-(5-cyclopropyl-3-(trifluoromethyl)-1H-pyrazol-1-yl)-21H-9-oxa-5-aza-2(6,1)-pyrazolo[3,4-d]pyrimidina-1(5,4)-pyrimidina-4(1,2)-benzenacyclononaphane]"
14,≤ 100,"CC(C)c1cccc2c1-c1ncc3cnn(c3n1)Cc1ccc(-c3nc(C(F)(F)F)cn3C(C)C)cc1OCCO2 [Example 7, 1^6-isopropyl-4^4-(1-isopropyl-4-(trifluoromethyl)-1H-imidazol-2-yl)-2^1H-5,8-dioxa-2(6,1)-pyrazolo[3,4-d]pyrimidina-1,4(1,2)-dibenzenacyclooctaphane]"
15,≤ 100,FC(F)(F)c1cn(C2CC2)c(-c2ccc3c(c2)/C=C/COc2ncnc(C4CC4)c2-c2ncc4cnn(c4n2)C3)n1 [Example 57]
16,≤ 100,"FC(F)(F)c1cn(C2CC2)c(-c2ccc3c(c2)NCCOc2ncnc(C4CC4)c2-c2ncc4ccc(n4n2)C3)n1 [Example 42, (Z)-1^6-cyclopropyl-4^4-(1-cyclopropyl-4-(trifluoromethyl)-1H-imidazol-2-yl)-8-oxa-5-aza-2(2,7)-pyrrolo[2,1-f][1,2,4]triazina-1(5,4)-pyrimidina-4(1,2)-benzenacyclooctaphane]"
17,≤ 100,"CC(C)n1cc(C(F)(F)F)nc1-c1ccc2cc1OCCCOc1ncnc(C3CC3)c1-c1ncc3ccc(=O)n(c3n1)C2 [Example 49, 1^6-cyclopropyl-4^4-(1-isopropyl-4-(trifluoromethyl)-1H-imidazol-2-yl)-2^7,2^8-dihydro-5,9-dioxa-2(2,8)-pyrido[2,3-d]pyrimidina-1(5,4)-pyrimidina-4(1,3)-benzenacyclononaphan-27-one]"
18,≤ 100,"CC(C)n1cc(C(F)(F)F)nc1-c1ccc2c(c1)OCCCNc1c(ncnc1C1CC1)-c1ncc3cnn(c3n1)C2 [Example 10, 1^6-cyclopropyl-4^4-(1-isopropyl-4-(trifluoromethyl)-1H-imidazol-2-yl)-2^1H-5-oxa-9-aza-2(6,1)-pyrazolo[3,4-d]pyrimidina-1(5,4)-pyrimidina-4(1,2)-benzenacyclononaphane]"
19,≤ 100,"CC(C)n1cc(C(F)(F)F)nc1-c1ccc2cc1OCCOc1ncnc(C3CC3)c1-c1ncc3cnn(c3n1)C2 [Example 29, 1^6-cyclopropyl-44-(1-isopropyl-4-(trifluoromethyl)-1H-imidazol-2-yl)-2^1H-5,8-dioxa-2(6,1)-pyrazolo[3,4-d]pyrimidina-1(5,4)-pyrimidina-4(1,3)-benzenacyclooctaphane]"
20,≤ 100,FC(F)(F)c1cn(C2CC2)c(-c2ccc3cc2CCCCOc2ncnc(C4CC4)c2-c2ncc4ccc(n4n2)C3)n1 [Example 47]
21,≥ 1000,"CC(C)n1cc(C(F)(F)F)nc1-c1ccc2c(c1)OCCCCOc1ncnc(C3CC3)c1-c1ncc3cnn(c3n1)C2 [Example 3, 1^6-cyclopropyl-4^4-(1-isopropyl-4-(trifluoromethyl)-1H-imidazol-2-yl)-2^1H-5,10-dioxa-2(6,1)-pyrazolo[3,4-d]pyrimidina-1(5,4)-pyrimidina-4(1,2)-benzenacyclodecaphane]"
22,≤ 100,"CC(C)n1cc(C(F)(F)F)nc1-c1ccc2c(c1)CCCOc1ncnc(C3CC3)c1-c1ncc3ccc(=O)n(c3n1)C2 [Example 25, 1^6-cyclopropyl-4^4-(1-isopropyl-4-(trifluoromethyl)-1H-imidazol-2-yl)-2^7,2^8-dihydro-8-oxa-2(2,8)-pyrido[2,3-d]pyrimidina-1(5,4)-pyrimidina-4(1,2)-benzenacyclooctaphan-2^7-one]"
23,≤ 100,"CC(C)n1cc(C(F)(F)F)nc1-c1ccc2c(c1)NCCCOc1ncnc(C3CC3)c1-c1ncc3ccc(n3n1)C2 [Example 33, (Z)-1^6-cyclopropyl-4^4-(1-isopropyl-4-(trifluoromethyl)-1H-imidazol-2-yl)-9-oxa-5-aza-2(2,7)-pyrrolo[2,1-f][1,2,4]triazina-1(5,4)-pyrimidina-4(1,2)-benzenacyclononaphane]"
24,≤ 100,"CC(C)n1cc(C(F)(F)F)nc1-c1ccc2c(c1)OCCOc1ncnc(C3CC3)c1-c1ncc3cnn(c3n1)C2 [Example 2, 1^6-cyclopropyl-4^4-(1-isopropyl-4-(trifluoromethyl)-1H-imidazol-2-yl)-2^1H-5,8-dioxa-2(6,1)-pyrazolo[3,4-d]pyrimidina-1(5,4)-pyrimidina-4(1,2)-benzenacyclooctaphane]"
25,≤ 100,"Cc1cnc2nc1NCc1ccc(-c3nc(C(F)(F)F)cn3C(C)C)cc1OCCOc1ncnc(C3CC3)c1-2 [Example 1, 1^6-cyclopropyl-5^4-(1-isopropyl-4-(trifluoromethyl)-1H-imidazol-2-yl)-2^5-methyl-6,9-dioxa-3-aza-1(5,4),2(2,4)-dipyrimidina-5(1,2)-benzenacyclononaphane]"
26,≥ 1000,"1^6-cyclopropyl-4^4-(1-isopropyl-4-(trifluoromethyl)-1H-imidazol-2-yl)-2^1H-9-oxa-5-aza-2(6,1)-pyrazolo[3,4-d]pyrimidina-1(5,4)-pyrimidina-4(1,2)-benzenacyclononaphan-6-one [Example 15]"
